Here are results for 22 compounds from paper PMC3598492, “Cannabinoid receptor type 2 (CB2)-selective N-aryl-oxadiazolyl-propionamides: synthesis, radiolabelling, molecular modelling and biological evaluation” (Organic and Medicinal Chemistry Letters, 2012).

Read-outs that look alike come from different tables or passages of the source. A value given as a limit tells only on which side of the number the result lay.

One assay deals with T1, hCB2 (Homo sapiens, UniProt P34972).
T1 construct: host or cells: CHO (hCB2-CHO), crude membrane homogenates
T1 sequence (P34972 whole entry): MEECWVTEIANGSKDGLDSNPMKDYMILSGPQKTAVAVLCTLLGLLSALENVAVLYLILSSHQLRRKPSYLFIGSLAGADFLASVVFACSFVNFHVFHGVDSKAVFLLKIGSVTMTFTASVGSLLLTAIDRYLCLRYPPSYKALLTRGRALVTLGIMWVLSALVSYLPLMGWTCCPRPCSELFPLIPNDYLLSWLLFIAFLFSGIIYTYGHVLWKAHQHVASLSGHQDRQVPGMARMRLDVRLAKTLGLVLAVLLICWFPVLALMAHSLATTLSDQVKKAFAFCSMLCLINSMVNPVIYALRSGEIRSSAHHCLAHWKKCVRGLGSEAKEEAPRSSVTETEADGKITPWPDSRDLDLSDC
The assay is described as follows: Competitive [3H]CP55,940 binding on membrane homogenates of hCB2-CHO cells. Particulars: for Binding to hCB2 in words: hCB2-CHO; for Selectivity, pKi (CB2) – pKi (CB1): pKi = -log (Ki), hCB2 versus hCB1. The method, then: (§1) CHO cell lines stably transfected with human CB1 (hCB1-CHO; obtained from Euroscreen, Gosselies, Belgium) or human CB2 (hCB2-CHO; obtained from Paul L. Prather, Department of Pharmacology and Toxicology, College of Medicine, University of Arkansas for Medical Sciences, USA) were cultured in Ham's F12 medium or Dulbecco's modified Eagle's medium (DMEM) with 10% fetal calf serum, 100 IU/mL penicillin, 100 μg/mL streptomycin and 250 or 400 μg/mL of the selection antibiotic Geneticin (G418), respectively. The cells were cultured in a humidified atmosphere with 5% CO2 at 37°C. Confluent cell layers of 175-cm^2 flasks were scraped; cells were harvested by centrifugation (800 rpm, 3 min), counted by trypan blue staining, suspended in 200 μL of 50 mM tris(hydroxymethyl)aminomethane (TRIS; pH 7.4) at 4°C and stored at −32°C until the binding experiment.
(§2) Competitive binding experiments were performed with crude membrane homogenates obtained from hCB1-CHO or hCB2-CHO cells as described above. […] Incubations were terminated by rapid filtration through a GF-B glass fibre filter pre-incubated for 90 min at room temperature in freshly prepared 0.5% polyvinylpyrrolidone + 0.1% Tween 20 solution using a 48-well cell harvester (Brandel, Gaithersburg, MD, USA).
The corresponding inhibition constants (Ki) of test compounds were derived from the IC50 values using the Cheng-Prusoff equation [49]. All binding experiments were performed in triplicates, and data are given as mean values from independent experiments.

Assay [1] deals with T2, CB2 receptors in mouse spleen tissue (Mus musculus, UniProt P47936).
T2 construct: 12-μm-thick coronal sections obtained from the spleens of three animals; from tissue; host or cells: spleen sections of female CD-1 mice
T2 sequence (P47936 whole entry): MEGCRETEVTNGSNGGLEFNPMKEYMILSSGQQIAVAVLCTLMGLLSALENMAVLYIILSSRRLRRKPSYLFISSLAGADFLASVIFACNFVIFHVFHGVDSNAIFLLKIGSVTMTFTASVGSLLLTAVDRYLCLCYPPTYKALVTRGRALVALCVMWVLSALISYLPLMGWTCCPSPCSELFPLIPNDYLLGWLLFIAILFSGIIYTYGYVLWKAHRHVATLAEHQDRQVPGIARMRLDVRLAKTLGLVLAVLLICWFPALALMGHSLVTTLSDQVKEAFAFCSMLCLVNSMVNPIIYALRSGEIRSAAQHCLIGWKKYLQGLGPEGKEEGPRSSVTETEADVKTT
The assay is described as follows: Autoradiographic displacement of [3H]CP55,940 on coronal mouse spleen sections. The class given is binding. As to conditions: for Displacement of the specific binding of 6 nM [3H]CP55,940: mouse spleen sections, HD regions. The protocol:
Animal experiments were performed under procedures approved by the State of Saxony Animal Care and Use Committee and conducted in accordance with the German Law for the Protection of Animals. Female CD-1 mice (10 to 12 weeks old, 20 to 25 g), obtained from the Medizinisch-Experimentelles Zentrum der Universität Leipzig (Leipzig, Germany), were used for the experiments.
The animals were anesthetized and sacrificed, and their spleens were rapidly removed and frozen in isopentane at −35°C. The spleens were brought to −15°C in a cryostat (Microm International GmbH, Walldorf, Germany), and a series of 12-μm-thick coronal sections obtained from the spleens of three animals were collected in parallel on microscopic glass slides. The sections were dried at room temperature and stored at −35°C until they were processed for receptor binding autoradiography.
For autoradiographic experiments, the slides were brought to room temperature, dried in a stream of cold air, pre-incubated in a binding buffer (50 mM TRIS (pH 7.4) at 21°C, 5% BSA) for 15 min at room temperature and dried again in a stream of cold air. […] Samples were washed twice for 30 min at 4°C in 50 mM TRIS (pH 7.4) at 4°C, containing 1% BSA, dipped briefly in ice-cold deionized water (5 s), dried in a stream of cold air and exposed along with [^3H] standards (Amersham/GE Healthcare, Piscataway, NJ, USA) for 14 days to [^3H]-sensitive screen plates (Fuji Photo Film, Co. Ltd., Tokyo, Japan).
The image plates were analysed using a BAS-1800II system bioimaging analyser (Fuji Photo Film, Co. Ltd., Tokyo, Japan). Scan data were visualized and processed by computer-assisted microdensitometry (Aida version 2.31, Raytest Isotopenmessgeräte GmbH, Straubenhardt, Germany). Irregular regions of interest (ROIs) were drawn on selected areas of the spleen labelled as red pulp (low-density binding) and white pulp (high-density binding) according to Lynn and Herkenham and Massi et al..
For orientation: Displacement assays read how much labelled ligand stays bound in the presence of the test substance.

The target of a further assay is T3, hCB1 (Homo sapiens, UniProt P21554).
T3 construct: host or cells: CHO (hCB1-CHO), crude membrane homogenates
T3 sequence (P21554 whole entry): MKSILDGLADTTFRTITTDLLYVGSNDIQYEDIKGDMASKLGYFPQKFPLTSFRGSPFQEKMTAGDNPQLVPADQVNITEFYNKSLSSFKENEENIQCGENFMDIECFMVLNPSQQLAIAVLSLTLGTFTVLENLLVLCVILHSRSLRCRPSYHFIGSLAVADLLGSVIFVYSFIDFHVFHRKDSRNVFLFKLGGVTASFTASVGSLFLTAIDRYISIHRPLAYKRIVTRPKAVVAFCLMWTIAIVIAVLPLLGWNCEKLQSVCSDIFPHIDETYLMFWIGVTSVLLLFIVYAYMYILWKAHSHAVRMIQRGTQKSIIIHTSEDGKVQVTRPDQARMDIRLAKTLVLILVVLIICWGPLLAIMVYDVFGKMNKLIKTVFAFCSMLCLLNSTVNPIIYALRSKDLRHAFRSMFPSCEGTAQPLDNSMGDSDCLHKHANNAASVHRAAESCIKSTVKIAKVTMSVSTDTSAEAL
The assay is described as follows: Competitive [3H]CP55,940 binding on membrane homogenates of hCB1-CHO cells. As to conditions: for Ki: read-out: Affinity (Ki) towards hCB1; for Binding to hCB1 in words: hCB1-CHO. The protocol:
as §1, §2
Binding data were analysed using GraphPad Prism version 2.01 (GraphPad Software, Inc., San Diego, CA, USA) by non-linear regression to provide estimates of the half maximal inhibitory concentration (IC50) values and the […]. […] The corresponding inhibition constants (Ki) of test compounds were derived from the IC50 values using the Cheng-Prusoff equation [49]. All binding experiments were performed in triplicates, and data are given as mean values from independent experiments.

The mark [2] stands for this setting: read-out: Affinity (Ki) towards hCB2.

One may read the Ki as a dissociation constant, usually derived from enzyme kinetics or from competition with a known ligand. On to `CCn1c2ccccc2c2cc(NC(=O)CCc3nc(-c4ccc(F)cc4OCCF)no3)ccc21` [Compound 6k, 3-(3-(4-Fluoro-2-(2-fluoroethoxy)phenyl)-1,2,4-oxadiazol-5-yl)-N-(9-ethyl-9H-carbazol-3-yl)-propanamide], for which, on hCB2 (setting [2]), the Ki is 3.19 µM.

For the compound `CCn1c2ccccc2c2cc(NC(=O)CCc3nc(-c4ccc(Br)nc4)no3)ccc21` [Compound 6c, 3-(3-(6-Bromopyridin-3-yl)-1,2,4-oxadiazol-5-yl)-N-(9-ethyl-9H-carbazol-3-yl)propanamide], on hCB2, the “Binding to hCB2 in words” value is “low affinity”. For the same compound, on hCB2 (setting [2]), the Ki came out at 1.92 µM.

On to SR144528, for which, in assay [1] (1 μM compound), the “Displacement of the specific binding of 6 nM [3H]CP55,940” value is reported as 78%.

As for `CCn1c2ccccc2c2cc(NC(=O)CCc3nc(-c4ccc([N+](=O)[O-])cc4F)no3)ccc21` [Compound 6d, 3-(3-(2-Fluoro-4-nitrophenyl)-1,2,4-oxadiazol-5-yl)-N-(9-ethyl-9H-carbazol-3-yl)propanamide], the Ki at hCB1 was 7.47 µM. Also, at hCB2, the Ki was determined as 0.0125 µM and the “Selectivity, pKi (CB2) – pKi (CB1)” value was 2.78.

With `CCn1ccc2cc(NC(=O)CCc3nc(-c4ccc(F)nc4)no3)ccc21` [Compound 3b, 3-(3-(6-Fluoropyridin-3-yl)-1,2,4-oxadiazol-5-yl)-N-(1-ethyl-1H-indol-5-yl)-propanamide], the “Binding to hCB2 in words” value on hCB2 was “low affinity”. Besides, the Ki on hCB2 (setting [2]) is > 100 µM.

On to `O=C(CCc1nc(-c2ccc(F)cc2Br)no1)Nc1ccc2[nH]c3ccccc3c2c1` [Compound 4e, 3-(3-(2-Bromo-4-fluorophenyl)-1,2,4-oxadiazol-5-yl)-N-(9H-carbazol-3-yl)propanamide], for which, at hCB2, the “Binding to hCB2 in words” value is on record as “no binding”. The Ki on hCB2 (setting [2]) is > 100 µM.

Consider `CC(C)(C)c1cc(NC(=O)CCc2nc(-c3ccc(F)nc3)no2)no1` [Compound 1b, 3-(3-(6-Fluoropyridin-3-yl)-1,2,4-oxadiazol-5-yl)-N-(5-tert-butylisoxazol-3-yl)propanamide], for which the “Binding to hCB2 in words” value at hCB2 was “low affinity”. Besides, the Ki on hCB2 (hCB2 expressed in CHO cells, 0.5 nM [3H]CP55,940, Cheng-Prusoff, read-out: Affinity (Ki) towards hCB2) was > 100 µM.

Consider `CCCCCCC(C)(C)c1ccc([C@@H]2C[C@H](O)CC[C@H]2CCCO)c(O)c1` [^3H]CP55,940], for which the “Density of specific binding sites” value in assay [1] (6 nM [3H]CP55,940, mouse spleen) stood at 150 ± 25 fmol/mg wet weight. The “Specific binding as share of total binding” value in assay [1] (mouse spleen autoradiography) is “approximately 90%”.

In the case of `CCn1c2ccccc2c2cc(NC(=O)CCc3nc(-c4ccc(F)nc4)no3)ccc21` [Compound 6b, 3-(3-(6-Fluoropyridin-3-yl)-1,2,4-oxadiazol-5-yl)-N-(9-ethyl-9H-carbazol-3-yl)propanamide], the Ki at hCB1 was 1.56 µM. Further, at hCB2, the “Binding to hCB2 in words” value was “low affinity” and the “Selectivity, pKi (CB2) – pKi (CB1)” value worked out at 1.06. The Ki at hCB2 (setting [2]) was found to be 0.135 µM.

As to `O=C(CCc1nc(-c2ccc(F)nc2)no1)Nc1cnc2ccccc2c1` [Compound 2b, 3-(3-(6-Fluoropyridin-3-yl)-1,2,4-oxadiazol-5-yl)-N-(quinolin-3-yl)propanamide], the “Binding to hCB1 in words” value at hCB1 is listed as “could not be observed”. In addition, the “Binding to hCB2 in words” value on hCB2 is recorded as “low affinity”. For the same compound, the Ki on hCB2 (setting [2]) was determined as 2.29 µM.

`CC(C)(C)c1cc(NC(=O)CCc2nc(-c3ccc(Br)nc3)no2)no1` [Compound 1a, 3-(3-(6-Bromopyridin-3-yl)-1,2,4-oxadiazol-5-yl)-N-(5-tert-butylisoxazol-3-yl)propanamide]: the “Binding to hCB2 in words” value at hCB2 was “high affinity”. The Ki on hCB2 (setting [2]) was 0.0144 µM.

In the case of `CCn1c2ccccc2c2cc(NC(=O)CCc3nc(-c4ccc([N+](=O)[O-])cc4C#N)no3)ccc21` [Compound 6f, 3-(3-(2-Cyano-4-nitrophenyl)-1,2,4-oxadiazol-5-yl)-N-(9-ethyl-9H-carbazol-3-yl)propanamide], the Ki on hCB2 amounted to 0.00589 µM.

As for `CCn1c2ccccc2c2cc(NC(=O)CCc3nc(-c4ccc(F)cc4OC)no3)ccc21` [Compound 6l, 3-(3-(4-Fluoro-2-methoxyphenyl)-1,2,4-oxadiazol-5-yl)-N-(9-ethyl-9H-carbazol-3-yl)-propanamide], the Ki at hCB2 (setting [2]) came out at 0.223 µM.

Consider `CCn1c2ccccc2c2cc(NC(=O)CCc3nc(-c4ccc([N+](=O)[O-])cc4Br)no3)ccc21` [Compound 6g, 3-(3-(2-Bromo-4-nitrophenyl)-1,2,4-oxadiazol-5-yl)-N-(9-ethyl-9H-carbazol-3-yl)propanamide], for which the Ki came to 0.397 µM on hCB1 and 0.00238 µM at hCB2. Moreover, on hCB2, the “Selectivity, pKi (CB2) – pKi (CB1)” value was determined as 2.22.

On to `Cc1c(C(=O)NN2CCCCC2)nn(-c2ccc(Cl)cc2Cl)c1-c1ccc(Cl)cc1` [SR141716A], for which the “Specific CP55,940 binding remaining” value in assay [1] (1 μM compound, 6 nM [3H]CP55,940, mouse spleen) amounted to 94%. In assay [1] (1 μM compound), the “Displacement of the specific binding of 6 nM [3H]CP55,940” value is recorded as “nearly no displacement”.

For the compound `CCn1c2ccccc2c2cc(NC(=O)CCc3nc(-c4ccc(F)cc4O)no3)ccc21` [Compound 6j, 3-(3-(4-Fluoro-2-hydroxyphenyl)-1,2,4-oxadiazol-5-yl)-N-(9-ethyl-9H-carbazol-3-yl)propanamide], the Ki on hCB2 (setting [2]) was 5.71 µM.

For the compound `CCn1c2ccccc2c2cc(NC(=O)CCc3nc(-c4ccc(N)cc4F)no3)ccc21` [Compound 6i, 3-(3-(4-Amino-2-fluorophenyl)-1,2,4-oxadiazol-5-yl)-N-(9-ethyl-9H-carbazol-3-yl)propanamide], the Ki on hCB2 (setting [2]) is > 100 µM.

Regarding `Cn1c2ccccc2c2cc(NC(=O)CCc3nc(-c4ccc(F)cc4Br)no3)ccc21` [Compound 5e, 3-(3-(2-Bromo-4-fluorophenyl)-1,2,4-oxadiazol-5-yl)-N-(9-methyl-9H-carbazol-3-yl)propanamide], the Ki on hCB2 (setting [2]) is 0.25 µM.

On to `O=C(CCc1nc(-c2ccc(F)cc2F)no1)Nc1cn(Cc2ccccc2)c2ccccc12` [Compound 7h, 3-(3-(2,4-Difluorophenyl)-1,2,4-oxadiazol-5-yl)-N-(1-benzyl-1H-indol-3-yl)-propanamide], for which, on hCB1, the “Binding to hCB1 in words” value is recorded as “Weak affinity” and the Ki is 6.01 µM. For the same compound, the “Binding to hCB2 in words” value on hCB2 is listed as “lost”. Besides, at hCB2 (setting [2]), the Ki was > 100 µM.

For the compound `O=C(CCc1nc(-c2ccc(Br)nc2)no1)Nc1cnc2ccccc2c1` [Compound 2c, 3-(3-(6-Bromopyridin-3-yl)-1,2,4-oxadiazol-5-yl)-N-(quinolin-3-yl)propanamide], the “Binding to hCB1 in words” value at hCB1 is listed as “could not be observed”. Further, the “Binding to hCB2 in words” value at hCB2 is given as “low affinity”. Further, the Ki on hCB2 (setting [2]) is > 100 µM.

As for `N#Cc1cc(F)ccc1-c1noc(CCC(=O)Nc2cnc3ccccc3c2)n1` [Compound 2a, 3-(3-(2-Cyano-4-fluorophenyl)-1,2,4-oxadiazol-5-yl)-N-(quinolin-3-yl)propanamide], on hCB1, the “Binding to hCB1 in words” value was “could not be observed”. In addition, the “Fold lower hCB2 affinity” value on hCB2 (in comparison to 6a) is “approximately 100 fold”. In addition, at hCB2 (setting [2]), the Ki is 0.722 µM.

For the compound `CCn1c2ccccc2c2cc(NC(=O)CCc3nc(-c4ccc(OC)cc4Br)no3)ccc21` [Compound 6m, 3-(3-(2-Bromo-4-methoxyphenyl)-1,2,4-oxadiazol-5-yl)-N-(9-ethyl-9H-carbazol-3-yl)propanamide], the Ki at hCB2 (setting [2]) was > 100 µM.
